Laboratory results published in patent US12643912B2, “Macrocyclic compounds, a process for their preparation and pharmaceutical compositions containing them” (LES LABORATOIRES SERVIER, priority 2020, dated 2026).
Where two headings read alike, the source gives them in different places.

What was measured:
[1] = system: Nrf2 (Keap1-NRF2 nuclear translocation); assay: U2OS translocation assay (PathHunter U2OS Keap1-NRF2 Nuclear Translocation Cell Line); type: cell-based
Method in brief: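 PathHunter U2OS line expressing Nrf2-enzyme-donor fusion and nuclear acceptor enzyme, 7 500 cells/well in Opti-MEM, 1% FBS. Compounds incubated 3 h at 37° C. Luminescence after 60 min with detection reagent, normalized between 1% DMSO and 10 μM andrographolide.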

Keap1 (A321-C624) (h) = target: T1, Keap1 (A321-C624) (h) (Homo sapiens, UniProt Q14145); assay: Surface Plasmon Resonance binding assay to Kelch domain of KEAP1; conditions: Biacore T200, 25° C., immobilized His-Thromb-KEAP1(A321-C624), single cycle kinetics, KD=kd/ka from 1:1 fit; read-out: Keap1 (A321-C624) (h) direct/SPR (KD)
T1 construct: His-Thromb-KEAP1(A321-C624) acquired from Novalix (batch PU-P01) was immobilized covalently by amine coupling; His tag (N); thrombin cleavage site (Thromb) (N); purchased Novalix batch PU-P01
T1 sequence (Q14145 321-624): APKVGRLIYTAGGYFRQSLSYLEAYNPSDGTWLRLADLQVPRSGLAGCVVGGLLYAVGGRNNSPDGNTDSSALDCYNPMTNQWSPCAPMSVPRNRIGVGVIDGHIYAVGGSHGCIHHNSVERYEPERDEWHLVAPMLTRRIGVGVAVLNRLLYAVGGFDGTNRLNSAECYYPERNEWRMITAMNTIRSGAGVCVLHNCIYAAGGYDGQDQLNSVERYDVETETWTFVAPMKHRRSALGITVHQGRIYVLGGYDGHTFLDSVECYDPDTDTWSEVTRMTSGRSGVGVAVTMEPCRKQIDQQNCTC
Method in brief: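 His-Thromb-KEAP1(A321-C624) amine-coupled on CM5 chip to 1250 RU; amine blank reference. Run at 25° C in HEPES pH 7.4, 150 mM NaCl, 3 mM EDTA, 1 mM TCEP, 0.05% P20, 5% DMSO; 180 s association, 720 s dissociation, 50 μL/min. KD = kd/ka from 1:1 kinetic fit, double-referenced, DMSO solvent-corrected.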

[2] = read-out: CELLULAR U2OS EC50, U2OS Keap1-NRF2 nuclear translocation cells, 3 h incubation, luminescence, normalized between 1% DMSO and 10 μM andrographolide
[3] = Homo sapiens, U2OS, 3 h, read-out: CELLULAR U2OS EC50 (nM), U2OS Keap1-NRF2 nuclear translocation cells, 3 h incubation, luminescence, normalized between 1% DMSO and 10 μM andrographolide

| Structure (SMILES) | EC50 [1, 2] [nM] | Kd (Keap1 (A321-C624) (h)) [nM] | EC50 [1, 3] [nM] |
| --- | --- | --- | --- |
| COc1cc2c3cc1OCCCCn1nnc4c(C)c(ccc41)C(CC(=O)O)c1ccc(C)c(c1)CN(C3)S(=O)(=O)O2 (single isomer, unassigned) [Example 25b, [23-Methoxy-4,31-dimethyl-27,27-dioxo-21,26-dioxa-27λ^6-thia-1,14,15,16-tetraazahexacyclo[20.5.3.1^3,70.1^9,130.0^12,160.0^25,29]dotriaconta-3(32),4,6,9(31),10,12,14,22,24,29-decaen-8-yl]acetic acid] | 56.8 | 1.16 | – |
| Cc1ccc2cc1CN1Cc3cc(c(Cl)cc3OS1(=O)=O)OCCCCn1nnc3c(C)c(ccc31)C2CC(=O)O (single isomer, unassigned) [Example 22a, [23-Chloro-4,31-dimethyl-27,27-dioxo-21,26-dioxa-27λ^6-thia-1,14,15,16-tetraazahexacyclo[20.5.3.1^3,70.1^9,130.0^12,160.0^25,29]dotriaconta-3(32),4,6,9(31),10,12,14,22,24,29-decaen-8-yl]acetic acid] | 17.2 | 0.631 | – |
| COCCC1CCOc2ccc3c(c2)CN([C@H](C)c2cc(ccc2C)[C@H](CC(=O)O)c2ccc4c(nnn4C1)c2C)S(=O)(=O)O3 (single isomer, unassigned) [Example 24a] | 7.28 | 1.1 | – |
| Cc1cc2cc(c1Cl)CN1Cc3cc(ccc3OS1(=O)=O)OCCCCn1nnc3c(C)c(ccc31)C2CC(=O)O (single isomer, unassigned) [Example 36b, [4-Chloro-5,31-dimethyl-27,27-dioxo-21,26-dioxa-27λ^6-thia-1,14,15,16-tetraazahexacyclo[20.5.3.1^3,70.1^9,130.0^12,160.0^25,29]dotriaconta-3(32),4,6,9(31),10,12,14,22,24,29-decaen-8-yl]acetic acid] | 1260 | 32.5 | – |
| Cc1ccc2cc1CN1Cc3cc(ccc3OS1(=O)=O)OCCCCn1nnc3c(C)c(cc(Cl)c31)[C@@H]2CC(=O)O [Example 50, [(8R)-11-Chloro-4,31-dimethyl-27,27-dioxo-21,26-dioxa-27λ^6-thia-1,14,15,16-tetraazahexacyclo[20.5.3.1^3,70.1^9,130.0^12,160.0^25,29]dotriaconta-3(32),4,6,9(31),10,12,14,22,24,29-decaen-8-yl]acetic acid] | – | 5.97 | 139 |
| Cc1ccc2cc1CN1Cc3cc(ccc3OS1(=O)=O)OCc1ccccc1OCCCn1nnc3c(C)c(ccc31)C2CC(=O)O (single isomer, unassigned) [Example 57b, [4,38-Dimethyl-34,34-dioxo-20,28,33-trioxa-34λ^6-thia-1,14,15,16-tetraazaheptacyclo[27.5.3.1^3,70.1^9,130.0^12,160.0^21,260.0^32,36]nonatriaconta-3(39),4,6,9(38),10,12,14,21,23,25,29,31,36-tridecaen-8-yl]acetic acid] | 2820 | 498 | – |
| Cc1ccc2cc1CN1Cc3cc(ccc3OS1(=O)=O)OC[C@H](C)CCn1nnc3c(C)c(ccc31)C2CC(=O)O (single isomer, unassigned) [Example 45b] | 144 | 2.35 | – |
| Cc1ccc2cc1CN1Cc3cc(cc(C)c3OS1(=O)=O)OCCCCn1nnc3c(C)c(ccc31)C2CC(=O)O (single isomer, unassigned) [Example 15b, [4,24,31-Trimethyl-27,27-dioxo-21,26-dioxa-27λ^6-thia-1,14,15,16-tetraazahexacyclo[20.5.3.1^3,70.1^9,130.0^12,160.0^25,29]dotriaconta-3(32),4,6,9(31),10,12,14,22,24,29-decaen-8-yl]acetic acid] | 381 | 4.41 | – |
| Cc1cc2cc(c1)C(CC(=O)O)c1ccc3c(nnn3CCCCOc3ccc4c(c3)CN(C2)S(=O)(=O)O4)c1C (stereo not shown) [Example 5, [5,31-Dimethyl-27,27-dioxo-21,26-dioxa-27λ^6-thia-1,14,15,16-tetraazahexacyclo[20.5.3.1^3,70.1^9,130.0^12,160.0^25,29]dotriaconta-3(32),4,6,9(31),10,12,14,22,24,29-decaen-8-yl]acetic acid] | – | 131 | 1810 |
| [2H]C([2H])(C(=O)O)[C@H]1c2ccc(C)c(c2)CN2Cc3cc(ccc3OS2(=O)=O)OCCCCn2nnc3c(C)c1ccc32 [Example 55b, [(8S)-4,31-Dimethyl-27,27-dioxo-21,26-dioxa-27λ^6-thia-1,14,15,16-tetraazahexacyclo[20.5.3.1^3,70.1^9,130.0^12,160.0^25,29]dotriaconta-3(32),4,6,9(31),10,12,14,22,24,29-decaen-8-yl](^2H2)acetic acid] | – | 2.5 | 15.8 |
| COc1ccc2cc1[C@@H](C)N1Cc3cc(ccc3OS1(=O)=O)OCCCCCCn1nnc3c(C)c(ccc31)[C@@H]2CC(=O)O [Example 40b, [(2R,8R)-4-methoxy-2,33-dimethyl-29,29-dioxo-23,28-dioxa-29λ^6-thia-1,14,15,16-tetraazahexacyclo[22.5.3.1^3,70.1^9,130.0^12,160.0^27,31]tetratriaconta-3(34),4,6,9(33),10,12,14,24,26,31-decaen-8-yl]acetic acid] | – | 22.3 | 353 |
